Series [1] can be described thus: refractive index (Na D-line) (dimensionless). As to conditions: 101.33 kPa, Liquid.
For series [2] the following is noted: 101.33 kPa, Liquid.

Structures are written as SMILES. Numbers after ± are expanded uncertainties.

One may read the refractive index as the speed of light in vacuum divided by its phase velocity in the sample. As usually defined, the mass density is the mass of a sample divided by its volume.

Take `NC1CCCCC1` [cyclohexylamine]: the refractive index in series [1] (288.15 K, Abbe refractometer) turned out to be 1.4624 ± 0.0005. Besides, in series [2] (303.15 K), the mass density is listed as 858.2 ± 0.2 kg/m3. In the case of `CCCCCCC` [heptane], the refractive index in series [1] (298.15 K, Abbe refractometer) was found to be 1.3853 ± 0.0003. The mass density in series [2] (298.15 K) amounted to 679.43 ± 0.36 kg/m3. `CCCCCCCC` [octane]: in series [1] (298.15 K), the refractive index came to 1.3946 ± 0.0007. The mass density in series [2] (298.15 K) came to 698.49 ± 0.31 kg/m3. For the compound `CCCc1ccccc1` [propylbenzene], the refractive index in series [1] (298.15 K, Abbe refractometer) was 1.4901 ± 0.0006. The mass density in series [2] (298.15 K) came to 860.79 ± 0.28 kg/m3. `O` [water]: in series [1] (293.15 K, Abbe refractometer), the refractive index was found to be 1.3336 ± 0.0005.

Regarding `Cc1ccccc1` [toluene], the refractive index in series [1] (293.15 K, Abbe refractometer) is listed as 1.496 ± 0.0006. The mass density in series [2] (293.15 K) is 866.78 ± 0.19 kg/m3.

(Values after the NIST ThermoML archive (doi:10.1021/je050520f).)
